Results as given in patent publication US20100056606A1, “Combination therapy using budesonide and antisense oligonucleotide targeted to IL4-receptor alpha” (ISIS Pharmaceuticals, Inc., priority 2005, published 2010).

Experiments:
mouse IL-4R alpha RNA = assay: Antisense inhibition of mouse IL-4R alpha mRNA in b.END cells, real-time PCR; format: cell-based; conditions: 24 hours
Protocol: The mouse brain endothelial cell line b.END was obtained from Dr. Werner Risau at the Max Plank Institute (Bad Nauheim, Germany). b.END cells were routinely cultured in DMEM, high glucose (Invitrogen Life Technologies, Carlsbad, Calif.) supplemented with 10% fetal bovine serum (Invitrogen Life Technologies, Carlsbad, Calif.). Cells were routinely passaged by trypsinization and dilution when they reached approximately 90% confluence. Cells were seeded into 96-well plates (Falcon-Primaria #353872, BD Biosciences, Bedford, Mass.) at a density of approximately 3000 cells/well for use in oligomeric compound transfection experiments.
When cells reach appropriate confluency, they are treated with oligonucleotide using Lipofectin™ as described. When cells reached 65-75% confluency, they were treated with oligonucleotide. Oligonucleotide was mixed with LIPOFECTIN™ Invitrogen Life Technologies, Carlsbad, Calif.) in Opti-MEM™-1 reduced serum medium (Invitrogen Life Technologies, Carlsbad, Calif.) to achieve the desired concentration of oligonucleotide and a LIPOFECTIN™ concentration of 2.5 or 3 […] oligonucleotide. This transfection mixture was incubated at room temperature for approximately 0.5 hours. For cells grown in 96-well plates, wells were washed once with 100 μL OPTI-MEM™-1 and then treated with 130 μL of the transfection mixture. Cells grown in 24-well plates or other standard tissue culture plates are treated similarly, using appropriate volumes of medium and oligonucleotide. Cells are treated and data are obtained in duplicate or triplicate. After approximately 4-7 hours of treatment at 37° C., the medium containing the transfection mixture was replaced with fresh culture medium. Cells were harvested 16-24 hours after oligonucleotide treatment.
Quantitation of IL-4R alpha mRNA levels was accomplished by real-time quantitative PCR using the ABI PRISM™ 7600, 7700, or 7900 Sequence Detection System (PE-Applied Biosystems, Foster City, Calif.) according to manufacturer's instructions.
Prior to quantitative PCR analysis, primer-probe sets specific to the target gene being measured were evaluated for their ability to be “multiplexed” with a GAPDH amplification reaction. After isolation the RNA is subjected to sequential reverse transcriptase (RT) reaction and real-time PCR, both of which are performed in the same well. RT and PCR reagents were obtained from Invitrogen Life Technologies (Carlsbad, Calif.). […] The RT reaction was carried out by incubation for 30 minutes at 48° C. Following a 10 minute incubation at 95° C. to activate the PLATINUM® Taq, 40 cycles of a two-step PCR protocol were carried out: 95° C. for 15 seconds (denaturation) followed by 60° C. for 1.5 minutes (annealing/extension).
Gene target quantities obtained by RT, real-time PCR were normalized using either the expression level of GAPDH, a gene whose expression is constant, or by quantifying total RNA using RiboGreen™ (Molecular Probes, Inc. Eugene, Oreg.). GAPDH expression was quantified by RT, real-time PCR, by being run simultaneously with the target, multiplexing, or separately. Total RNA was quantified using RiboGreen™ RNA quantification reagent (Molecular Probes, Inc. Eugene, Oreg.).
Probes and primers for use in real-time PCR were designed to hybridize to target-specific sequences. The target-specific PCR probes have FAM covalently linked to the 5′ end and TAMRA or MGB covalently linked to the 3′ end, where FAM is the fluorescent dye and TAMRA or MGB is the quencher dye.
A series of oligomeric compounds was designed to target different regions of mouse IL-4R alpha RNA, using SEQ ID NO: 5. All compounds are chimeric oligonucleotides (“gapmers”) 20 nucleotides in length, composed of a central “gap” region consisting of ten 2′-deoxynucleotides, which is flanked on both sides (5′ and 3′) by five-nucleotide “wings”. The wings are composed of 2′-O-(2-methoxyethyl) nucleotides, also known as 2′-MOE nucleotides. […]

OVA sensitized mice = assay: Mouse model of allergic inflammation, chronic model (Penh, BAL cells, cytokines); format: in vivo; conditions: for % Eosinophils (BAL) / % Neutrophils (BAL): day 76
Protocol: In the mouse model of allergic inflammation, mice are sensitized and challenged with aerosolized chicken ovalbumin (OVA). Airway responsiveness is assessed by inducing airflow obstruction using a noninvasive method whereby unrestrained conscious OVA sensitized mice are placed into the main chamber of a plethysmograph (Buxco Electronics, Inc. Troy, N.Y.) and challenged with aerosolized methacholine. Pressure difference between this chamber and a reference chamber is used to extrapolate minute volume, breathing frequency and enhanced pause (Penh). Penh is a dimensionless parameter that is a function of total pulmonary airflow (i.e. the sum of the airflow in the upper and lower respiratory tracts) during the respiratory cycle of a mouse and is […] when airflow is greater. This parameter closely correlates with lung resistance as measured by traditional, invasive techniques using ventilated animals (Hamelmann et al., 1997, Am. J. Respir. Crit. Care Med. 156:766-775).
In the chronic model of allergic inflammation, mice are subjected to repeated intranasal OVA administration, producing a chronic inflammatory response. In this model, mice were sensitized by intraperitoneal injection with 100 μg of OVA on days 0 and 14 as in the previous models. OVA was administered at a dose of 500 μg on days 14, 27, 28, 29, 47, 61, 73, 74 and 75. Oligonucleotide, either ISIS 231894 or the mismatch control, was administered via the nose-only aerosol delivery exposure system at a dose of either 5 μg/kg or 500 μg/kg on days 31, 38, 45, 52, 59, 66 and 73. Dexamethasone, an anti-inflammatory agent, was administered by intraperitoneal injection at 2.5 mg/kg on days 47, 62, 73, 74 and 75. Analysis of endpoints was performed on day 76, except cytokines which were evaluated on day 62, 6 hours post OVA challenge. Endpoints were similar to those in the acute and rechallenge model, and included Penh (AHR), BAL inflammatory cell accumulation and cytokines and mucus accumulation.

Substance: ISIS 231894: lead antisense oligonucleotide targeted to mouse IL-4R alpha; CCGCTGTTCTCAGGTGACAT; SEQ ID NO: 24; 2'-MOE gapmer, phosphorothioate (all phosphorothioate, sugars by position and methylation of C not given here; 2'-MOE gapmer)
- IL-4R alpha mRNA (mouse IL-4R alpha RNA; 1 nM): 100 % of untreated control
- IL-4R alpha mRNA (mouse IL-4R alpha RNA; 5 nM): 55 % of untreated control
- IL-4R alpha mRNA (mouse IL-4R alpha RNA; 10 nM): 41 % of untreated control
- IL-4R alpha mRNA (mouse IL-4R alpha RNA; 25 nM): 35 % of untreated control
- IL-4R alpha mRNA (mouse IL-4R alpha RNA; 50 nM): 20 % of untreated control
- IL-4R alpha mRNA (mouse IL-4R alpha RNA; 100 nM): 20 % of untreated control
- mouse IL-4R alpha mRNA reduction (in words) (mouse IL-4R alpha RNA; compared to mismatch control): dose-dependent mouse IL-4R alpha mRNA reduction
- % Eosinophils (BAL) (OVA sensitized mice; 5 μg/kg inhaled): 45%
- % Neutrophils (BAL) (OVA sensitized mice; 5 μg/kg inhaled): 38%
- % Eosinophils (BAL) (OVA sensitized mice; 500 μg/kg inhaled): 29%
- % Neutrophils (BAL) (OVA sensitized mice; 500 μg/kg inhaled): 35%
- percent of eosinophils in BAL fluid vs vehicle control, in words (OVA sensitized mice; ISIS 231894 500 μg/kg, dexamethasone 2.5 mg/kg ip): significant decrease
- methacholine-induced AHR (Penh) vs vehicle, in words (OVA sensitized mice; ISIS 231894 each dose (5, 500 μg/kg), dexamethasone 2.5 mg/kg ip): significant decrease
- percent neutrophils in BAL, in words (OVA sensitized mice; both doses of ISIS 231894, dexamethasone 2.5 mg/kg ip): significantly reduced
- IL-5 and KC in BAL fluid vs vehicle, in words (OVA sensitized mice; day 62, ISIS 231894 500 μg/kg, dexamethasone 2.5 mg/kg ip): significant reduction
